Measured values as given in ChEMBL document CHEMBL2169765, “Structural basis for the accommodation of bis- and tris-aromatic derivatives in vitamin D nuclear receptor” (J Med Chem, 2012).

Columns and labels:
Type in all cases: cell-based
Vitamin D3 receptor [1] = molecular target: T1, Vitamin D3 receptor (Homo sapiens, UniProt P11473); assay: Transactivation of full length human VDR expressed in human HeLa cells assessed as increase in CYP24 transcription after 18 hrs by luciferase reporter gene assay
T1 sequence (P11473 whole entry): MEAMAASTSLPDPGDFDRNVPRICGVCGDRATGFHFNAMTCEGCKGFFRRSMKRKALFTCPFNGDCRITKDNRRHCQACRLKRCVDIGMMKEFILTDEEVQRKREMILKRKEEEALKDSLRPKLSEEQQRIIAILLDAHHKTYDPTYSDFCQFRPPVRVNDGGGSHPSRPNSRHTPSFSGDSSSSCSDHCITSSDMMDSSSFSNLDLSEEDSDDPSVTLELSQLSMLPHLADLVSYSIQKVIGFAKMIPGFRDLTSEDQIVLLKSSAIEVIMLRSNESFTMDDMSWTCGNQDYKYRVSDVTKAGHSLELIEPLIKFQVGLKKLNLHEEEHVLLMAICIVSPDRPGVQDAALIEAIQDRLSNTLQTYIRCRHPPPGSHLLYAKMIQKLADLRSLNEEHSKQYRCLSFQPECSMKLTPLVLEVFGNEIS

Vitamin D3 receptor [2] = molecular target: T1, Vitamin D3 receptor; assay: Transactivation of GAL4-fused VDR ligand binding domain expressed in human HeLa cells after 16 hrs by luciferase reporter gene assay
[3] = molecular target: T2, Vitamin D3 receptor (Homo sapiens) (UniProt P11473); assay: Ratio of calcitriol EC50 to compound EC50 for full length human VDR expressed in human HeLa cells
T2 sequence (whole entry): T1 sequence (P11473 whole entry)

Row | SMILES | EC50 (Vitamin D3 receptor [1]) | EC50 (Vitamin D3 receptor [2]) | Ratio EC50 [3]
1 | CC/C(=C\C=C\C(O)(C(F)(F)F)C(F)(F)F)c1cccc(CCc2ccc(CO)c(CO)c2)c1 | 2.8 nM | 1.7 nM | –
2 | CCCc1cc(C(O)(CC)CC)ccc1-c1cc(OCc2ccc(CO)c(CO)c2)ccc1CC | 2.2 nM | – | –
3 | CC/C(=C\C=C\C(O)(CC)CC)c1cccc(OCc2ccc(CO)c(CO)c2)c1 | 49 nM | – | –
4 | CC/C(=C\C=C\C(O)(C(F)(F)F)C(F)(F)F)c1cccc(OCc2ccc(CO)c(CO)c2)c1 | – | 5 nM | –
5 | CCCc1cc(C(O)(CC)CC)ccc1-c1cc(CCc2ccc(CO)c(CO)c2)ccc1C | 0.5 nM | – | 4
